Literature values, collected in patent US20050080043A1, “Self-preserved antibacterial nasal, inhalable, and topical ophthalmic preparations and medications” (priority 2000, published 2005).
Read-outs that look alike come from different tables or passages of the source.

stability of drug solution (pH 5.0): very stable | stability of drug solution (pH 6.8): relatively unstable
SMILES: CC[C@@H]1C(=O)OC[C@@H]1Cc1cncn1C [pilocarpine]
